From patent US11285226B2, “Aryl ethene derivative and pharmaceutical composition containing same as active ingredient” (priority 2016, dated 2022)

Columns and labels:
CYP1A2 = CYP1A2 (Homo sapiens (Human), UniProt P05177); assay: Cytochrome P450 activity inhibition, CYP1A2; format: in vitro ADME; details: 10 μM, human liver microsomes
Description: (§1) 1) Cytochrome P450 (CYP450) Activity Inhibition Evaluation

CYP3A4 = CYP3A4 (Homo sapiens (Human), UniProt P08684); assay: Cytochrome P450 activity inhibition, CYP3A4; format: in vitro ADME; details: 10 μM, human liver microsomes
Description: Thereafter, in order to complete the reaction, an acetonitrile solution containing an internal standard material (Terfenadine) was added thereto, centrifugation (14,000 rpm, 4° C.) was performed for 5 minutes, and a supernatant was injected into a LC-MS/MS system to analyze the metabolites of the substrate drug, thereby evaluating drug metabolism enzyme inhibition by the arylethene derivative of the present invention.

CYP2D6 = CYP2D6 (Homo sapiens (Human), UniProt P10635); assay: Cytochrome P450 activity inhibition, CYP2D6; format: in vitro ADME; details: 10 μM, human liver microsomes
Description: as §1

CYP2C9 = CYP2C9 (Homo sapiens (Human), UniProt P11712); assay: Cytochrome P450 activity inhibition, CYP2C9; format: in vitro ADME; details: 10 μM, human liver microsomes
Description: as §1

CYP2C19 = CYP2C19 (Homo sapiens (Human), UniProt P33261); assay: Cytochrome P450 activity inhibition, CYP2C19; format: in vitro ADME; details: 10 μM, human liver microsomes
Description: as §1

ERRγ = format: cell-based; details: for Functional Assay, Cpds/Ref 5182: activity relative to reference compound GSK5182; for Functional Assay at 10 μM (% of control), Cpds: AD293, 24 hours
Description: AD293 was cultured in a 24-well plate for 24 hours, using a DMEM High glucose culture medium (Hyclone, USA) to which 0.5% FBS was added at a concentration of 9×10^4/well. The culture medium was replaced with a DMEM High glucose culture medium to which 10% FBS was added, treatment was performed with a mixture of a TransIT-LT1 transfection reagent (Minis, USA) and pCMX-Gal4-ERRγ, pFR-luciferase reporter plasmid, pCMV-β-gal, and culturing was performed for 24 hours. Thereafter, a luciferase activity assay and a β-gal assay were performed, respectively, with a lysate obtained after treatment with the arylethene derivative of the present invention for 24 hours. All results were derived from three or more independent repetitive experiments.

[1] = format: in vivo; details: rat, IV 1 mg/kg
Description: An oral administration group fasts the day before.
Blood of each animal is collected at 0 hour.
Into a tail vein of an intravenous administration group (IV), a drug is injected at a dose of 1 mg/kg (syringe).
To an oral administration group (PO), a drug is orally administered at a dose of 10 mg/kg (oral zondec)
After administration, blood of the intravenous administration group was collected through a jugular vein 8 times at 0.08, 0.25, 0.5, 1, 2, 4, 6, and 8 hours. One collected blood amount is 400 to 500 ul.
After administration, blood of the oral administration group was collected through a jugular vein 6 times at 0.25, 0.5, 1, 4, 6 and 8 hours. One collected blood amount is 400 to 500 ul.
Supernatant plasma is collected by a centrifuge.
The supernatant plasma was injected into a LC-MS/MS system and the drug is analyzed.

[2] = format: in vitro ADME, human; details: 1 μM, 30 minutes, 37° C.
Description: 2) Microsomal Stability Evaluation
Four liver microsomes (Human, Dog, Rat, Mouse 0.5 mg/ml) with a 0.1 M phosphate buffer solution (pH 7.4), and the arylethene derivative of the present invention were added to a concentration of 1 μM, culturing was performed at 37° C. for 5 minutes in advance, a NADPH regeneration system solution was added thereto, and culturing was performed at 37° C. for 30 minutes. Thereafter, in order to complete the reaction, an acetonitrile solution containing an internal standard material (chlorpropamide) was added thereto, centrifugation (14,000 rpm, 4° C.) was performed for 5 minutes, and a supernatant was injected into a LC-MS/MS system to analyze the substrate drug, thereby evaluating metabolism stability to the arylethene derivative of the present invention.

Chain of CYP1A2 (P05177 whole entry): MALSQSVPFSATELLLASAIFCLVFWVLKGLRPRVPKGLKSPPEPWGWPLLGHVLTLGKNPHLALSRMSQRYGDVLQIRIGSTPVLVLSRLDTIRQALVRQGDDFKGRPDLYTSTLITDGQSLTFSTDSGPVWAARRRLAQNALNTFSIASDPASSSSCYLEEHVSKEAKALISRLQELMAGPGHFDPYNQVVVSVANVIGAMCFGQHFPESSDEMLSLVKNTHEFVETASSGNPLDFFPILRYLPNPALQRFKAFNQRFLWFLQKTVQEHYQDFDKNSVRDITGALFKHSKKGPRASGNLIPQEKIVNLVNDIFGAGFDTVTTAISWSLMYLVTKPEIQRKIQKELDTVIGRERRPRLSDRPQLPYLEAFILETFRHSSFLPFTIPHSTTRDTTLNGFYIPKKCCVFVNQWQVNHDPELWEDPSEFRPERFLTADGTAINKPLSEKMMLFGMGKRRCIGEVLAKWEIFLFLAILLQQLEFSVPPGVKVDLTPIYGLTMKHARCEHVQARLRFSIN
Chain of CYP3A4 (P08684 whole entry): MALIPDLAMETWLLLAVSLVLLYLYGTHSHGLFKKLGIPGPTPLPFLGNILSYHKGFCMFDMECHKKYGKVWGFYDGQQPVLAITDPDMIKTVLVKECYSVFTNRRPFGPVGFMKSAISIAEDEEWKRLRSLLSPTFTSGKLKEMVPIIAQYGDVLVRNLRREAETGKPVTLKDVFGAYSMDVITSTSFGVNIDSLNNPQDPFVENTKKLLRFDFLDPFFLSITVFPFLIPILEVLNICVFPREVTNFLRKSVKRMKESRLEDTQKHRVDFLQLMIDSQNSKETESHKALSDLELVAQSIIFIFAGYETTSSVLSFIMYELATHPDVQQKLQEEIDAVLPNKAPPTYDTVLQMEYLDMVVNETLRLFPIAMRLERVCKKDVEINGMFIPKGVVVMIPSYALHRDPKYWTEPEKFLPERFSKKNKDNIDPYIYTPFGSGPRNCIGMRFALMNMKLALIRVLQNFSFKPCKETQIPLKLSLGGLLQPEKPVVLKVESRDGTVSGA
Chain of CYP2D6 (P10635 whole entry): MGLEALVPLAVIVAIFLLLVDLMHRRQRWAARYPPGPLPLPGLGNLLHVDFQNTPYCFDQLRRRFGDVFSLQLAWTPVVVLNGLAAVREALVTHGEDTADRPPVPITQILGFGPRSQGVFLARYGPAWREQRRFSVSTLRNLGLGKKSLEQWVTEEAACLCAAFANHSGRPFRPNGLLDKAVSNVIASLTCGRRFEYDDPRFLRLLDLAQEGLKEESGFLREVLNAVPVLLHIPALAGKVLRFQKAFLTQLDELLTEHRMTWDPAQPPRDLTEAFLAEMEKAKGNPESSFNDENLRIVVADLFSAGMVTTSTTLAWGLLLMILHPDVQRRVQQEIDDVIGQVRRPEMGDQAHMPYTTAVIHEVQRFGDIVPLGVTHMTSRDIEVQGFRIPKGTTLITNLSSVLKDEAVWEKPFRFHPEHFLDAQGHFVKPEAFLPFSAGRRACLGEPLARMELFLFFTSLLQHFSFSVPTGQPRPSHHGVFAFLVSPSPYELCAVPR
Chain of CYP2C19 (P33261 whole entry): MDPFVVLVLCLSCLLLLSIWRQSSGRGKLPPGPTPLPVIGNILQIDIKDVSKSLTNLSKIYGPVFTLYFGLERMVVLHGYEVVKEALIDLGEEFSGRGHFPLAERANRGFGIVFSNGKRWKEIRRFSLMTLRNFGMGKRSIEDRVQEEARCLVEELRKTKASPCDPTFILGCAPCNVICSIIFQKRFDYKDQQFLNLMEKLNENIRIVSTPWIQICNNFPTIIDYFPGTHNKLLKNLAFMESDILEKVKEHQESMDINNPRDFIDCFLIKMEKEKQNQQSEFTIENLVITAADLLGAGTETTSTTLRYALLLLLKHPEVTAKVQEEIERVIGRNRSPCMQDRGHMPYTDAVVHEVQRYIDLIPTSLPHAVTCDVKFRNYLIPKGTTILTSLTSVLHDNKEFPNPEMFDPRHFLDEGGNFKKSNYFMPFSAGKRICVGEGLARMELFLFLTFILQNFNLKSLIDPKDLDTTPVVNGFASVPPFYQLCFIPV
Chain of CYP2C9 (P11712 whole entry): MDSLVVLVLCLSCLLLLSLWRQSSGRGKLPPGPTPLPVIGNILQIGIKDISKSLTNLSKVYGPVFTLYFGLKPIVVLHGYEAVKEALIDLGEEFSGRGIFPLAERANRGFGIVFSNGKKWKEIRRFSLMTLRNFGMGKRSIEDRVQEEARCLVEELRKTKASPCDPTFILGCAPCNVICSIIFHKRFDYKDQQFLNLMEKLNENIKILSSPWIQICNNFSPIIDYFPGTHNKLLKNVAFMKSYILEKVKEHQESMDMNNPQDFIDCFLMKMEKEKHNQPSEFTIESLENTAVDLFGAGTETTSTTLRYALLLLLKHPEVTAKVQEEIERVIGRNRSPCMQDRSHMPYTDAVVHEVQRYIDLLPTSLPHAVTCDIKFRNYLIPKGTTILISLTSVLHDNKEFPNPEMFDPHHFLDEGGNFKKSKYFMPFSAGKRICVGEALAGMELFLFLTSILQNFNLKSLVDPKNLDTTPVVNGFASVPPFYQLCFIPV

Compound	CYP inhibition (% of control) 1A2 (CYP1A2)	CYP inhibition (% of control) 3A4 (CYP3A4)	CYP inhibition (% of control) 2D6 (CYP2D6)	CYP inhibition (% of control) 2C9 (CYP2C9)	CYP inhibition (% of control) 2C19 (CYP2C19)	Functional Assay, Cpds/Ref 5182 (ERRγ)	also measured
CN1CCCC1CCOc1ccc(/C(=C(/CCCO)c2ccccc2)c2ccc(Br)cc2)cc1 (centres unmarked) [Compound 13d]	>100 % of control	90.2 % of control	>100 % of control	97 % of control	89.4 % of control	–	–
Cc1ccc(/C(=C(\CCCO)c2ccccc2)c2ccc(C3CN(C(C)C)C3)cc2)cc1 [Compound 22e]	–	–	–	–	–	0.61	–
CN1CCN(c2ccc(/C(=C(/CCCO)c3ccccc3)c3ccc(N)cc3)cc2)CC1 [Compound 26a, (Z)-5-(4-aminophenyl)-5-(4-(4-methylpiperazin-1-yl)phenyl)-4-phenylpent-4-en-1-ol]	>100 % of control	75.4 % of control	85.5 % of control	53.2 % of control	89 % of control	0.84	–
O=C(CN1CCCCC1)Nc1ccc(/C(=C(/CCCO)c2ccccc2)c2ccc(O)cc2)cc1 [Compound 44, (E)-N-(4-(5-hydroxy-1-(4-hydroxyphenyl)-2-phenylpent-1-en-1-yl)phenyl)-2-(piperidin-1-yl)acetamide]	–	–	–	–	–	–	AUCINF [1]: 0.34 μMh; AUCall [1]: 0.28 μMh; Cl(observed)/F [1]: 139 mL/min/kg; Vss [1]: 52.8 L/kg; t1/2 [1]: 4.4 h
C[Si](C)(CN1CCCC1)c1ccc(/C(=C(/CCCO)c2ccccc2)c2ccc(O)cc2)cc1 [Compound 42c]	–	–	–	–	–	0.89	Functional Assay at 10 μM (% of control), Cpds (ERRγ): 2.6 % of control
CN1CCC[C@@H]1CCOc1ccc(/C(=C(/CCCO)c2ccccc2)c2ccc(O)cc2)cc1 [Compound 6k]	–	–	–	–	–	0.79	–
CC(C)(C)OC(=O)N1CC(c2ccc(/C(=C(/CCCO)c3ccccc3)c3ccc(O)cc3)cc2)C1 [Compound 18t, tert-butyl (E)-3-(4-(5-hydroxy-1-(4-hydroxyphenyl)-2-phenylpent-1-en-1-yl)phenyl)azetidine-1-carboxylate]	100 % of control	106 % of control	98 % of control	83 % of control	93 % of control	–	–
CC(C)(C)OC(=O)N1CCN(c2ccc(/C(=C(/CCCO)c3ccccc3)c3ccc(Br)cc3)cc2)CC1 [Compound 18n]	–	–	–	–	–	0.82	–
OCCC/C(=C(\c1ccc(O)cc1)c1ccc(C2CCN(C3CC3)CC2)cc1)c1ccccc1 [Compound 22i]	–	–	–	–	–	–	MS (Microsomal Stability) (%) human [2]: 36.0%
CN1CCC[C@H]1CCOc1ccc(/C(=C(/CCCO)c2ccccc2)c2ccc(O)cc2)cc1 [Compound 6j]	98.7 % of control	74.6 % of control	85.2 % of control	85.6 % of control	89.1 % of control	0.77	–
CN1CCCC1CCOc1ccc(/C(=C(/CCCO)c2ccccc2)c2ccc(O)cc2)cc1 (centres unmarked) [Compound 6g]	97.8 % of control	83.7 % of control	81.7 % of control	75.4 % of control	81.8 % of control	1.60	–
CCN1CCC(c2ccc(C(=C(CCCO)c3ccccc3)c3cccc(O)c3)cc2)CC1 [Compound 22ae]	–	–	–	>100 % of control	>100 % of control	–	–
CN1CCC(c2ccc(/C(=C(/CCCO)c3ccccc3)c3cccc(O)c3)cc2)CC1 [Compound 22ac]	>100 % of control	85 % of control	–	>100 % of control	>100 % of control	–	–
CN1CCC[C@@H]1COc1ccc(/C(=C(/CCCO)c2ccccc2)c2ccc(O)cc2)cc1 [Compound 6i]	98.1 % of control	79.4 % of control	93.6 % of control	86.7 % of control	82.6 % of control	–	–
OCCC/C(=C(\c1ccc(O)cc1)c1ccc(OCCN2CCCC2)cc1)c1ccccc1 [Compound 6e]	79.6 % of control	68.1 % of control	80.6 % of control	51.6 % of control	64.1 % of control	–	–
CN1CCN(c2ccc(/C(=C(/CCCO)c3ccccc3)c3ccc([N+](=O)[O-])cc3)cc2)CC1 [Compound 18c]	–	–	–	–	80 % of control	0.42	–
OCCC/C(=C(\c1ccc(Br)cc1)c1ccc(N2CCNCC2)cc1)c1ccccc1 [Compound 20a, (E)-5-(4-bromophenyl)-4-phenyl-5-(4-(piperazin-1-yl)phenyl)pent-4-en-1-ol]	85 % of control	55 % of control	70.7 % of control	76 % of control	61.9 % of control	–	–
OCCC/C(=C(\c1ccc(O)cc1)c1ccc(OCCN2CCOCC2)cc1)c1ccccc1 [Compound 6c]	91.9 % of control	81.3 % of control	96.4 % of control	77.9 % of control	81.6 % of control	–	–

Compound	CYP inhibition (% of control) 1A2 (CYP1A2)	CYP inhibition (% of control) 3A4 (CYP3A4)	CYP inhibition (% of control) 2D6 (CYP2D6)	CYP inhibition (% of control) 2C9 (CYP2C9)	CYP inhibition (% of control) 2C19 (CYP2C19)	Functional Assay, Cpds/Ref 5182 (ERRγ)	also measured
Cc1ccc(/C(=C(\CCCO)c2ccccc2)c2ccc(N3CCN(C)CC3)cc2)cc1 [Compound 18f]	>100 % of control	–	–	–	–	0.82	–
OCCC/C(=C(\c1ccc(O)cc1)c1ccc(C2=CCN(C3CC3)CC2)cc1)c1ccccc1 [Compound 22j]	–	85 % of control	–	88 % of control	–	–	–
CN1CCN(c2ccc(/C(=C(/CCCO)c3ccccc3)c3ccc(O)cc3)cc2)CC1 [Compound 18d]	88 % of control	64 % of control	–	–	–	0.97	–
CN1CCN(c2ccc(/C(=C(/CCCOC(=O)C(C)(C)C)c3ccccc3)c3ccc(OC(=O)C(C)(C)C)cc3)cc2)CC1 [Compound 28g]	–	–	–	–	–	–	Functional Assay at 10 μM (% of control), Cpds (ERRγ): 5.1 % of control
OCCC/C(=C(\c1ccc(O)cc1)c1ccc(N2CCNCC2)cc1)c1ccccc1 [Compound 20c]	–	–	–	–	–	0.93	–
OCCC/C(=C(\c1ccc(O)cc1)c1ccc(N2CCN(C3CCC3)CC2)cc1)c1ccccc1 [Compound 22q]	–	81 % of control	–	–	–	–	–
OCCC/C(=C(\c1ccc(O)cc1)c1ccc(OCCN2CCC[C@@H]2CO)cc1)c1ccccc1 [Compound 38c]	–	–	–	–	–	0.99	–
CC(C)N1CCN(c2ccc(/C(=C(/CCCO)c3ccccc3)c3ccc(OS(C)(=O)=O)cc3)cc2)CC1 [Compound 28a, (E)-4-(5-hydroxy-1-(4-(4-isopropylpiperazin-1-yl)phenyl)-2-phenylpent-1-en-1-yl)phenyl methanesulfonate]	–	–	–	–	–	1.20	–
CC(C)N1CCC(c2ccc(/C(=C(/CCCO)c3ccccc3)c3cccc(O)c3)cc2)CC1 [Compound 22h]	>100 % of control	–	–	–	>100 % of control	–	–
CCN1CCN(c2ccc(/C(=C(/CCCO)c3ccccc3)c3ccc(O)cc3)cc2)CC1 [Compound 18i]	–	–	–	–	–	0.97	–
CC(C)N1CCC(c2ccc(/C(=C(/CCCO)c3ccccc3)c3ccc(N)cc3)cc2)CC1 [Compound 26c]	–	–	–	–	–	4.80	–
OCCC/C(=C(\c1ccc(O)cc1)c1ccc(C2CN(C3CC3)C2)cc1)c1ccccc1 [Compound 22d]	>100 % of control	–	–	>100 % of control	>100 % of control	0.62	–
CN1CCN(c2ccc(/C(=C(/CCCOC(=O)C(C)(C)C)c3ccccc3)c3ccc(O)cc3)cc2)CC1 [Compound 28f]	–	–	–	–	–	0.98	Functional Assay at 10 μM (% of control), Cpds (ERRγ): 4 % of control
OCCC/C(=C(\c1ccc(O)cc1)c1ccc(OCCN2CCC3(CCNC3)C2)cc1)c1ccccc1 (centres unmarked) [Compound 39, (Z)-4-(1-(4-(2-(2,7-diazaspiro[4.4]nonan-2-yl)ethoxy)phenyl)-5-hydroxy-2-phenylpent-1-en-1-yl)phenol]	82.5 % of control	59 % of control	67.8 % of control	74.4 % of control	73.9 % of control	–	–
OCCC/C(=C(/c1ccc(C2=CCN(C3CC3)CC2)cc1)c1cccc(O)c1)c1ccccc1 [Compound 22l]	–	–	99 % of control	–	97 % of control	–	–
CC(C)N1CCN(c2ccc(/C(=C(/CCCO)c3ccccc3)c3ccc([N+](=O)[O-])cc3)cc2)CC1 [Compound 18g]	–	–	–	–	–	0.84	–
CC(C)N1CCN(c2ccc(/C(=C(/CCCO)c3ccccc3)c3ccc(Br)cc3)cc2)CC1 [Compound 18h]	–	–	–	–	–	–	MS (Microsomal Stability) (%) human [2]: >100%
